We go through three compounds from patent publication US20100305139A1, “METHOD OF TREATING ABNORMAL LIPID METABOLISM” (MITSUBISHI TANABE PHARMA CORPORATION, priority 2005, published 2010).

In data set [1] the test system is ZF rat. As to the kind of experiment: Oral fat loading in ZF rat (abnormal lipid and glucose metabolism). Format: in vivo. On the procedure:
Effect of Compound 3 on Abnormal Lipid Metabolism and Abnormal Glucose Metabolism after Oral Fat Loading in ZF Rat
The test was performed using male ZF rats. The rats were divided into two groups (10 rats/group). Compound 3 (1 mg/kg) or a 0.5% hydroxypropylmethylcellulose solution, which was a vehicle used to dissolve the compound, was administered by gavage to each of the rats. The administered volume was 2 mL/kg for both. At 15 min after the administration, a fat emulsion (main component was soybean oil, Intralipos; Otsuka Pharmaceutical Factory, Inc.) was orally loaded at the rate of 10 mL/kg. Blood samples were sequentially collected, and plasma TG concentration, free fatty acids concentration, glucose concentration and insulin concentration were measured.

Data set [2] relates to Wistar rat. As to the kind of experiment: Fasting blood sugar level in Wistar rat.
Data set [3] has as its system fat-loaded ZF rat. As to the kind of experiment: Oral glucose loading in fat-loaded ZF rat. The format is in vivo. On the procedure: Effect of Compound 3 on Increase in Plasma Glucose after Oral Glucose Loading in Fat-Loaded ZF Rat
The test was performed using male ZF rats. The number of experimental examples was 10 for each group. […] The administered volume was 2 mL/kg for both. At 15 min after the administration, a fat emulsion (main component was soybean oil, Intralipos; Otsuka Pharmaceutical Factory, Inc.) was orally loaded at the rate of […]. Furthermore, at 6 hr after the administration of fat emulsion, a mixed carbohydrate solution of starch, sucrose and lactose (mixing ratio 6:3:1) was orally administered at 3.5 g/kg. The volume administered of each of the fat emulsion and the carbohydrate solution was 10 mL/kg. Blood samples were sequentially collected, and plasma glucose concentration was measured.

Data set [4] has as its system rats with type 2 diabetes. As to conditions: non-patent reference 7; cited from earlier work.
[5] abbreviates: ZF rat, summary statement, dose not given.

Turning to `Br.Br.Br.Br.Br.Cc1cc(N2CCN([C@@H]3CN[C@H](C(=O)N4CCSC4)C3)CC2)n(-c2ccccc2)n1.Cc1cc(N2CCN([C@@H]3CN[C@H](C(=O)N4CCSC4)C3)CC2)n(-c2ccccc2)n1` [compound 3, 3-{(2S,4S)-4-[4-(3-methyl-1-phenyl-1H-pyrazol-5-yl)piperazin-1-yl]pyrrolidin-2-ylcarbonyl}thiazolidine 2.5 hydrobromide], the “increase in the plasma TG concentration after fat loading” value in data set [1] (male ZF rats, 1 mg/kg by gavage 15 min before oral fat emulsion 10 mL/kg, change from value before fat loading (FIG. 1)) is given as “suppressed”. Besides, in data set [1] (male ZF rats, 1 mg/kg by gavage 15 min before oral fat emulsion 10 mL/kg, change from value before fat loading (FIG. 2)), the “increase in the plasma free fatty acids concentration after fat loading” value is given as “suppressed”. The “increase in the plasma glucose concentration after fat loading” value in data set [1] (male ZF rats, 1 mg/kg by gavage 15 min before oral fat emulsion 10 mL/kg, change from value before fat loading (FIG. 3)) is “suppressed”. The “plasma insulin concentration after fat loading” value in data set [1] (male ZF rats, 1 mg/kg by gavage 15 min before oral fat emulsion 10 mL/kg, change from value before fat loading (FIG. 4)) is listed as “transiently increased”. In addition, the “fasting plasma glucose concentration” value in data set [2] (overnight-fasted male Wistar rats, gavage, dose of 100 mg/kg, maximum change from value before drug administration (FIG. 6)) was “no effect”. Besides, in data set [2] (overnight-fasted male Wistar rats, gavage, dose of 100 mg/kg, maximum change from value before drug administration (FIG. 7)), the fasting insulin concentration result is “no effect”. For the same compound, the “increase in the baseline plasma glucose concentration by fat loading” value in data set [3] (male fat-loaded ZF rats, 1 mg/kg by gavage 15 min before fat emulsion (FIG. 5)) was “suppressed”. Further, the “increase in the plasma glucose concentration after oral glucose loading” value in data set [3] (male fat-loaded ZF rats, 1 mg/kg by gavage, mixed carbohydrate 3.5 g/kg orally at 6 hr after fat loading (FIG. 5)) was “suppressed”.
`CC(C)[C@H]1CC[C@H](C(=O)N[C@H](Cc2ccccc2)C(=O)O)CC1` [nateglinide, (−)-N-(trans-4-isopropylcyclohexylcarbonyl)-D-phenylalanine, reference compound]: the “plasma glucose concentration (hypoglycemia)” value in data set [2] (overnight-fasted male Wistar rats, gavage, nateglinide 10, 30, 100 or 300 mg/kg, maximum change from value before drug administration (FIG. 6)) was “induced hypoglycemia”. Besides, the plasma insulin concentration entry in data set [2] (overnight-fasted male Wistar rats, gavage, nateglinide 10, 30, 100 or 300 mg/kg, maximum change from value before drug administration (FIG. 7)) is “increased”. Also, in data set [4], the “increase in blood lipid by fat loading” value is on record as “suppresses”.
`Br.Cc1cc(N2CCN([C@@H]3CN[C@H](C(=O)N4CCSC4)C3)CC2)n(-c2ccccc2)n1` [compound 1, 3-{(2S,4S)-4-[4-(3-methyl-1-phenyl-1H-pyrazol-5-yl)piperazin-1-yl]pyrrolidin-2-ylcarbonyl}thiazolidine hydrobromide]: the “blood glucose increase after the fat loading” value in data set [1] (setting [5]) was “suppresses”. Also, the “increase in the plasma TG concentration after fat loading” value in data set [1] (obese Zucker fatty rat having insulin resistance, summary statement, dose not given) is given as “suppresses”. The hypoglycemia result in data set [2] (summary statement, unlike insulin secretagogue, dose not given) is “does not induce hypoglycemia”. Moreover, the “blood glucose increase after glucose loading in an oral glucose loading test after fat loading” value in data set [3] (setting [5]) was “markedly suppresses”.
